Results on one sequence are retold here after article PMC12552119, “Tailored structured peptide design with a key-cutting machine approach” (Nature Machine Intelligence, 2025).

Where no end group is shown, it is not given here.

For one data set, the system named is K. pneumoniae ATCC 13883. In kind it is cell-based, Klebsiella pneumoniae. The following applies: ATCC 13883, 24 h. How it is done:
(§1) Fig. 2 Antimicrobial activity and secondary structure of computationally designed peptides. a, Structure prediction of the synthesized peptides. b, Heatmap of the antimicrobial activities of the peptides against 11 clinically relevant pathogens, including four strains resistant to conventional antibiotics. Briefly, 10^6 bacterial cells and serially diluted peptides (1-64 μmol l^−1) were incubated at 37 °C. One day after treatment, the optical density at 600 nm was measured in a microplate reader to evaluate bacterial growth in the presence of the peptides. MIC values in the heatmap are the mode of the replicates in each condition. c–f, Ternary plots showing the percentage of secondary structure for each peptide (at 50 μmol l^−1) in four different solvents: water (c), 60% TFE in water (d), 10 mmol l^−1 SDS in water (e) and 50% methanol (MeOH) in water (f). Secondary structure fractions were calculated using the BeStSel server. […] An error of one column cannot be fully excluded. / Panel b: AT1, AT2, AT3 and all blank cells print no number and are left out.
(§2) In this study, we used the following pathogenic bacterial strains: A. baumannii ATCC 19606, E. coli AIC221 (E. coli MG1655 phnE_2::FRT (control strain for AIC222)) and E. coli AIC222 (E. coli MG1655 pmrA53 phnE_2::FRT (polymyxin resistant; colistin-resistant strain)), Klebsiella pneumoniae ATCC 13883, Pseudomonas aeruginosa PAO1, P. aeruginosa PA14 and Staphylococcus aureus ATCC 12600. All pathogens were grown in Luria–Bertani (LB) broth and on LB agar. Pseudomonas isolation (P. aeruginosa strains) agar plates were exclusively used in the case of Pseudomonas species. In all the experiments, bacteria were inoculated from one isolated colony and grown overnight (16 h) in liquid medium at 37 °C. On the following day, inocula were diluted 1:100 in fresh media and incubated at 37 °C to mid-logarithmic phase.
(§3) Broth microdilution assays[64] were conducted to establish the MIC for each peptide. Peptides were added to untreated polystyrene 96-well microtiter plates and serially diluted twofold in sterile water, ranging from 1 to 64 μmol l^−1. A bacterial inoculum at a concentration of 10^6 CFU ml^−1 in LB medium was then mixed in a 1:1 ratio with the peptide solution. […] Each assay was performed in three independent replicates.

The next data set relates to A. baumannii ATCC 19606. In kind it is cell-based, Acinetobacter baumannii. The following applies: ATCC 19606, 24 h. How it is done: as §1, §2, §3
Data set [1] relates to S. aureus ATCC BAA-1556 - MRSA. It counts as cell-based. The note with it: ATCC BAA-1556, 24 h. How it is done: as §1, §3
Data set [2] deals with E. faecium ATCC 700221 - VRE. In kind it is cell-based. The following applies: ATCC 700221, 24 h. How it is done: as §1, §3
Another data set relates to S. aureus ATCC 12600. In kind it is cell-based, Staphylococcus aureus. The following applies: ATCC 12600, 24 h. How it is done: as §1, with “out. […]” for “out.”
Another data set deals with HEK293T cells. Description: Cytotoxicity, MTT assay. In kind it is cell-based, human. The following applies: 24 h. The protocol:
Fig. 3 Mechanism of action and cytotoxic activity of designed peptides. a, To assess whether the peptides act on bacterial membranes, all active peptides against A. baumannii American Type Culture Collection (ATCC) 19606 were subjected to outer-membrane permeabilization, and peptides active against A. baumannii ATCC 19606 and vancomycin-resistant E. faecalis ATCC 700802 were tested in cytoplasmic-membrane depolarization assays. b, The fluorescent probe NPN was used to assess membrane permeabilization induced by the tested peptides. c,d, The fluorescent probe DiSC3-5 was used to evaluate membrane depolarization caused by the designed peptides in A. baumannii ATCC 19606 (c) and vancomycin-resistant E. faecalis ATCC 700802 (d). […] All experiments were performed in three independent replicates. Panel a created with BioRender.com. Source data TEXT PRINTED IN THE PICTURE: (e) AT1: CC50 (μmol l^-1), HEK293T cells: 2,758 | (e) AT2: CC50 (μmol l^-1), HEK293T cells: 2 × 10^37 | (e) AT3: CC50 (μmol l^-1), HEK293T cells: 269 | (e) AT4: CC50 (μmol l^-1), HEK293T cells: 3,015 | (e) AT5: CC50 (μmol l^-1), HEK293T cells: 6 × 10^41 | (e) NE1: CC50 (μmol l^-1), HEK293T cells: 6 × 10^33 | (e) NE2: CC50 (μmol l^-1), HEK293T cells: 507 | (e) NE3: CC50 (μmol l^-1), HEK293T cells: 655 | (e) NE4: CC50 (μmol l^-1), HEK293T cells: 2 × 10^32 | (e) NG1: CC50 (μmol l^-1), HEK293T cells: 351 | (e) NG2: CC50 (μmol l^-1), HEK293T cells: 1 × 10^35 | (e) NG3: CC50 (μmol l^-1), HEK293T cells: 2 × 10^46 DOUBTS OF THE COPYIST ABOUT THIS PICTURE: AT2, CC50: small exponent, 37 or 57 / AT5, CC50: small exponent, 41 uncertain / NE1, CC50: small exponent, 33 or 38 / NE4, CC50: small exponent, 32 or 52 / NG2, CC50: small exponent, 35 or 36 / NG3, CC50: small exponent, 46 or 48 […]
HEK293T cells were obtained from the ATCC (CRL-3216). The cells were cultured in high-glucose DMEM supplemented with 1% penicillin and streptomycin (antibiotics) and 10% fetal bovine serum and grown at 37 °C in a humidified atmosphere containing 5% CO2.
One day before the experiment, an aliquot of 100 μl of the cells at 50,000 cells ml^−1 was seeded into each well of the cell-treated 96-well plates used in the experiment (that is, 5,000 cells per well)[45]. The attached HEK293T cells were then exposed to increasing concentrations of the peptides (4–64 μmol l^−1) for 24 h. After the incubation period, we performed the (3-(4,5-dimethylthiazol-2-yl)-2,5-diphenyltetrazolium bromide) tetrazolium reduction assay (MTT assay)[45]. […] The resulting salts were then resuspended in hydrochloric acid (0.04 mol l^−1) in anhydrous isopropanol and quantified by spectrophotometric measurements of absorbance at 570 nm. […]
(Tetrazolium dyes change colour on reduction, which living cells bring about.)

Consider FRLAAVLHFHIH [AT4], for which the MIC (usually the lowest concentration that inhibits growth of the organism) was determined as 8 µM in the data set on K. pneumoniae ATCC 13883; 32 µM against A. baumannii ATCC 19606; 16 µM in data set [1]; 32 µM in data set [2]; 64 µM in the data set on S. aureus ATCC 12600. In addition, in the data set on HEK293T cells, the “CC50, cytotoxic concentration leading to 50% cell lysis” value was determined as 3.015 mM.
